ChEMBL document CHEMBL3885861, “Open TG-GATES”

Species on record: Rattus norvegicus
Assay: Open TG-GATES - Regimen: Daily Repeat
Format: toxicity, organism-based, Sprague-Dawley
Set-up: regimen Daily Repeat, gender Male, age 6 weeks
Details: in vivo, po, route gavage; for APTT / Bas / Eos / Fbg / Ht / Lym / MCHC / MCV / Mono / PT / Plat / RBC / Ret / WBC: tissue Blood; for KIDNEY_L / KIDNEY_R / KIDNEY_TOTAL: tissue Kidney; for LIVER: tissue Liver; for ALP / ALT / AST / BUN / CRE / Ca / Cl / DBIL / IP / LDH / Na / PL / RALB / TBIL / TC / TG / TP / gamma-GTP: tissue Plasma
[1] = 120 mg/kg, 72 h, dose level Middle, time 3 day
[2] = 120 mg/kg, […], dose level Middle, time 7 day
[3] = 120 mg/kg, […], dose level Middle, time 14 day
[4] = 120 mg/kg, […], dose level Middle, time 28 day
[5] = 400 mg/kg, 72 h, dose level High, time 3 day
[6] = 400 mg/kg, […], dose level High, time 7 day
[7] = 400 mg/kg, […], dose level High, time 14 day
[8] = 400 mg/kg, […], dose level High, time 28 day

Compound: CC(C)N(CCC(C(N)=O)(c1ccccc1)c1ccccn1)C(C)C (stereo not given) [DISOPYRAMIDE]
- APTT [1]: 20.4 s
- Bas [1]: 0%
- Eos [1]: 1%
- Fbg [1]: 319.6 mg/dL
- Ht [1]: 41.1%
- Lym [1]: 78.4%
- MCHC [1]: 32.2%
- MCV [1]: 62.6 fL
- Mono [1]: 2.6%
- PT [1]: 15.5 s
- Plat [1]: 125 x10_4/uL
- RBC [1]: 657.8 x10_4/ul
- Ret [1]: 5.3%
- WBC [1]: 107.5 x10_2/uL
- KIDNEY_L [1]: 1 g
- KIDNEY_R [1]: 1 g
- KIDNEY_TOTAL [1]: 2 g
- LIVER [1]: 10.6 g
- ALP [1]: 1634.4 IU/L
- ALT [1]: 52.4 IU/L
- AST [1]: 74 IU/L
- BUN [1]: 15.6 mg/dL
- CRE [1]: 0.2 mg/dL
- Ca [1]: 10.8 mg/dL
- Cl [1]: 106.6 meq/L
- DBIL [1]: 0 mg/dL
- IP [1]: 7.7 mg/dL
- LDH [1]: 174.6 IU/L
- Na [1]: 142.8 meq/L
- PL [1]: 151.2 mg/dL
- RALB [1]: 2.9 g/dL
- TBIL [1]: 0 mg/dL
- TC [1]: 79.2 mg/dL
- TG [1]: 111.8 mg/dL
- TP [1]: 5.4 g/dL
- gamma-GTP [1]: 1.6 IU/L
- TERMINAL_BW [2]: 247.4 g
- TERMINAL_BW [3]: 313.2 g
- TERMINAL_BW [4]: 369.7 g
- APTT [2]: 21.5 s
- Bas [2]: 0%
- Eos [2]: 1%
- Fbg [2]: 327.2 mg/dL
- Ht [2]: 41%
- Lym [2]: 82%
- MCHC [2]: 32.6%
- MCV [2]: 59.6 fL
- Mono [2]: 1.8%
- PT [2]: 15.8 s
- Plat [2]: 116.6 x10_4/uL
- RBC [2]: 688.8 x10_4/ul
- Ret [2]: 5.7%
- WBC [2]: 102 x10_2/uL
- APTT [3]: 23.1 s
- Bas [3]: 0%
- Eos [3]: 0.8%
- Fbg [3]: 331.4 mg/dL
- Ht [3]: 41.2%
- Lym [3]: 79.8%
- MCHC [3]: 32.5%
- MCV [3]: 58.9 fL
- Mono [3]: 2.4%
- PT [3]: 15.5 s
- Plat [3]: 117.3 x10_4/uL
- RBC [3]: 700.2 x10_4/ul
- Ret [3]: 4.5%
- WBC [3]: 125.1 x10_2/uL
- APTT [4]: 24.7 s
- Bas [4]: 0%
- Eos [4]: 1%
- Fbg [4]: 323.2 mg/dL
- Ht [4]: 42.5%
- Lym [4]: 79.2%
- MCHC [4]: 33.7%
- MCV [4]: 55.5 fL
- Mono [4]: 2.4%
- PT [4]: 15.2 s
- Plat [4]: 103.8 x10_4/uL
- RBC [4]: 768.2 x10_4/ul
- Ret [4]: 2.6%
- WBC [4]: 105.7 x10_2/uL
- KIDNEY_L [2]: 1.1 g
- KIDNEY_R [2]: 1.1 g
- KIDNEY_TOTAL [2]: 2.2 g
- KIDNEY_L [3]: 1.2 g
- KIDNEY_R [3]: 1.3 g
- KIDNEY_TOTAL [3]: 2.5 g
- KIDNEY_L [4]: 1.4 g
- KIDNEY_R [4]: 1.5 g
- KIDNEY_TOTAL [4]: 2.9 g
- LIVER [2]: 11.4 g
- LIVER [3]: 14.2 g
- LIVER [4]: 15.6 g
- ALP [2]: 1449.8 IU/L
- ALT [2]: 48.2 IU/L
- AST [2]: 77.4 IU/L
- BUN [2]: 16.4 mg/dL
- CRE [2]: 0.2 mg/dL
- Ca [2]: 10.6 mg/dL
- Cl [2]: 106.2 meq/L
- DBIL [2]: 0 mg/dL
- IP [2]: 7.5 mg/dL
- LDH [2]: 167.8 IU/L
- Na [2]: 141.6 meq/L
- PL [2]: 145 mg/dL
- RALB [2]: 3 g/dL
- TBIL [2]: 0 mg/dL
- TC [2]: 75.8 mg/dL
- TG [2]: 107.8 mg/dL
- TP [2]: 5.5 g/dL
- gamma-GTP [2]: 1.4 IU/L
- ALP [3]: 1779.4 IU/L
- ALT [3]: 41.4 IU/L
- AST [3]: 64.8 IU/L
- BUN [3]: 15.6 mg/dL
- CRE [3]: 0.1 mg/dL
- Ca [3]: 10.6 mg/dL
- Cl [3]: 105.6 meq/L
- DBIL [3]: 0 mg/dL
- IP [3]: 7.1 mg/dL
- LDH [3]: 139.4 IU/L
- Na [3]: 142.6 meq/L
- PL [3]: 146.6 mg/dL
- RALB [3]: 3.1 g/dL
- TBIL [3]: 0.004 mg/dL
- TC [3]: 66 mg/dL
- TG [3]: 194 mg/dL
- TP [3]: 5.8 g/dL
- gamma-GTP [3]: 2 IU/L
- ALP [4]: 1162.8 IU/L
- ALT [4]: 55 IU/L
- AST [4]: 85.2 IU/L
- BUN [4]: 17 mg/dL
- CRE [4]: 0.2 mg/dL
- Ca [4]: 10.7 mg/dL
- Cl [4]: 106.4 meq/L
- DBIL [4]: 0 mg/dL
- IP [4]: 6.7 mg/dL
- LDH [4]: 190.2 IU/L
- Na [4]: 140.6 meq/L
- PL [4]: 151 mg/dL
- RALB [4]: 2.9 g/dL
- TBIL [4]: 0.012 mg/dL
- TC [4]: 79.6 mg/dL
- TG [4]: 112.4 mg/dL
- TP [4]: 5.9 g/dL
- gamma-GTP [4]: 2.2 IU/L
- TERMINAL_BW [5]: 214.9 g
- APTT [5]: 22.4 s
- Bas [5]: 0%
- Eos [5]: 0.8%
- Fbg [5]: 351.2 mg/dL
- Ht [5]: 42.4%
- Lym [5]: 73.2%
- MCHC [5]: 32.4%
- MCV [5]: 62.3 fL
- Mono [5]: 2%
- PT [5]: 15.6 s
- Plat [5]: 129.4 x10_4/uL
- RBC [5]: 681.2 x10_4/ul
- Ret [5]: 3.3%
- WBC [5]: 80.5 x10_2/uL
- KIDNEY_L [5]: 0.9 g
- KIDNEY_R [5]: 1 g
- KIDNEY_TOTAL [5]: 1.9 g
- LIVER [5]: 9.5 g
- ALP [5]: 1597.6 IU/L
- ALT [5]: 40.4 IU/L
- AST [5]: 70.2 IU/L
- BUN [5]: 12.8 mg/dL
- CRE [5]: 0.2 mg/dL
- Ca [5]: 10.8 mg/dL
- Cl [5]: 107.2 meq/L
- DBIL [5]: 0 mg/dL
- IP [5]: 7.4 mg/dL
- LDH [5]: 182.6 IU/L
- Na [5]: 143 meq/L
- PL [5]: 137.8 mg/dL
- RALB [5]: 2.9 g/dL
- TBIL [5]: 0 mg/dL
- TC [5]: 74.4 mg/dL
- TG [5]: 83.6 mg/dL
- TP [5]: 5.5 g/dL
- gamma-GTP [5]: 1.4 IU/L
- TERMINAL_BW [6]: 229.8 g
- TERMINAL_BW [7]: 278.8 g
- TERMINAL_BW [8]: 316.5 g
- APTT [6]: 23.9 s
- Bas [6]: 0%
- Eos [6]: 1.2%
- Fbg [6]: 346.8 mg/dL
- Ht [6]: 41.6%
- Lym [6]: 74.4%
- MCHC [6]: 33.3%
- MCV [6]: 60.2 fL
- Mono [6]: 3%
- PT [6]: 15.7 s
- Plat [6]: 112.7 x10_4/uL
- RBC [6]: 691.2 x10_4/ul
- Ret [6]: 4.2%
- WBC [6]: 123.8 x10_2/uL
- APTT [7]: 25.3 s
- Bas [7]: 0%
- Eos [7]: 1%
- Fbg [7]: 316.4 mg/dL
- Ht [7]: 41.7%
- Lym [7]: 79.4%
- MCHC [7]: 32.7%
- MCV [7]: 58.7 fL
- Mono [7]: 1.8%
- PT [7]: 15.2 s
- Plat [7]: 102.3 x10_4/uL
- RBC [7]: 710.4 x10_4/ul
- Ret [7]: 4.4%
- WBC [7]: 103 x10_2/uL
- APTT [8]: 26 s
- Bas [8]: 0%
- Eos [8]: 1.2%
- Fbg [8]: 345.5 mg/dL
- Ht [8]: 44.9%
- Lym [8]: 79%
- MCHC [8]: 33.7%
- MCV [8]: 55.6 fL
- Mono [8]: 2.5%
- PT [8]: 15.3 s
- Plat [8]: 98.6 x10_4/uL
- RBC [8]: 808.8 x10_4/ul
- Ret [8]: 2.4%
- WBC [8]: 105 x10_2/uL
- KIDNEY_L [6]: 1 g
- KIDNEY_R [6]: 1 g
- KIDNEY_TOTAL [6]: 2 g
- KIDNEY_L [7]: 1.1 g
- KIDNEY_R [7]: 1.2 g
- KIDNEY_TOTAL [7]: 2.3 g
- KIDNEY_L [8]: 1.2 g
- KIDNEY_R [8]: 1.3 g
- KIDNEY_TOTAL [8]: 2.5 g
- LIVER [6]: 11 g
- LIVER [7]: 12.8 g
- LIVER [8]: 13.4 g
- ALP [6]: 1394 IU/L
- ALT [6]: 45 IU/L
- AST [6]: 67.2 IU/L
- BUN [6]: 14.8 mg/dL
- CRE [6]: 0.2 mg/dL
- Ca [6]: 10.8 mg/dL
- Cl [6]: 105.4 meq/L
- DBIL [6]: 0 mg/dL
- IP [6]: 8 mg/dL
- LDH [6]: 160.8 IU/L
- Na [6]: 141.6 meq/L
- PL [6]: 170.6 mg/dL
- RALB [6]: 2.9 g/dL
- TBIL [6]: 0 mg/dL
- TC [6]: 80.6 mg/dL
- TG [6]: 195.4 mg/dL
- TP [6]: 5.4 g/dL
- gamma-GTP [6]: 1.4 IU/L
- ALP [7]: 1544.2 IU/L
- ALT [7]: 44 IU/L
- AST [7]: 68 IU/L
- BUN [7]: 15.2 mg/dL
- CRE [7]: 0.1 mg/dL
- Ca [7]: 10.6 mg/dL
- Cl [7]: 104.2 meq/L
- DBIL [7]: 0 mg/dL
- IP [7]: 7.9 mg/dL
- LDH [7]: 149.6 IU/L
- Na [7]: 143.2 meq/L
- PL [7]: 149.6 mg/dL
- RALB [7]: 3 g/dL
- TBIL [7]: 0.002 mg/dL
- TC [7]: 74.4 mg/dL
- TG [7]: 147.2 mg/dL
- TP [7]: 5.6 g/dL
- gamma-GTP [7]: 1.6 IU/L
- ALP [8]: 1456 IU/L
- ALT [8]: 66 IU/L
- AST [8]: 98.2 IU/L
- BUN [8]: 17.5 mg/dL
- CRE [8]: 0.2 mg/dL
- Ca [8]: 10.4 mg/dL
- Cl [8]: 106 meq/L
- DBIL [8]: 0 mg/dL
- IP [8]: 6.6 mg/dL
- LDH [8]: 170.5 IU/L
- Na [8]: 141.2 meq/L
- PL [8]: 152.5 mg/dL
- RALB [8]: 3 g/dL
- TBIL [8]: 0 mg/dL
- TC [8]: 75.5 mg/dL
- TG [8]: 165.2 mg/dL
- TP [8]: 5.8 g/dL
- gamma-GTP [8]: 2 IU/L
